{"source": "patent US11419902B2", "about": "“Compositions comprising bacterial strains” (4D Pharma Research Limited, priority 2018, dated 2022)", "key": {"[1]": {"system": "IL-8", "test": "IL-8 secretion in MG U373 cells (ELISA)", "type": "cell-based, human", "settings": "10% bacteria supernatant 24 h, independently of the presence of LPS (1 ug/mL)", "description": "MG U373 is a human glioblastoma astrocytoma derived from a malignant tumour and were purchased from Sigma-Aldrich (cat n. 08061901-1VL). MG U373 human glioblastoma astrocytoma cells were grown in MEM (Sigma Aldrich, cat n. M-2279) supplemented with 10% FBS, 1% Pen Strep, 4 mM L-Glut, 1×MEM Non-essential Amino Acid solution and 1× Sodium Piruvate.\nOnce grown the MG U373 cells were plated on 24-well plate at 100,000 cells/well. The cells were treated with LPS (1 ug/mL) alone or with 10% of bacteria supernatant from MRx0029 for 24 h. LPS is a known stimulator of proinflammatory cytokines such as IL-8. Afterwards the cell free supernatants were collected, centrifuged at 10,000 g for 3 min at 4° C. IL-8 was measured using Human IL-8 ELISA Kit from Peprotech (cat n. #900-K18) according to manufacturer instruction."}, "[2]": {"system": "IL-8", "test": "IL-8 secretion by differentiated HT29-mtx cells", "type": "cell-based", "settings": "24 h, vs untreated and YCFA+-treated cells", "description": "The ability of MRx0029 to cause any intestinal barrier dysfunction was investigated. HT29-mtx epithelial, mucin-producing cell monolayers were used as an in vitro model to evaluate gut barrier disruption and immune stimulation following treatment with MRx0029."}, "[3]": {"system": "ERK signalling (phosphorylated ERK1 and 2/total ERK)", "test": "ERK signalling in SKMEL31 cell line (Western blot)", "type": "cell-based", "settings": "SKMEL31, relative to the negative control (YFCA+)", "description": "Following 24 h treatment with the appropriate drugs either in presence of 10% bacterial supernatant or absence (YCFA+), protein extracts were obtained by lysing cells in RIPA buffer (R0278; Sigma Aldrich) supplemented with protease inhibitors (cOmplete Protease Inhibitor Cocktail Tablets; Roche, Switzerland) and 1 mM/L sodium orthovanadate, 0.5 mM/L PMSF. Protein quantification was done by the BCA protein assay. Equal amounts of total protein (20 μg/lane) were then separated by SDS-PAGE on 4-15% gradient gel (BioRad) and transferred to polyvinylidene difluoride (PVDF) membranes (Thermo Fisher Scientific, Loughborough). […]\nProteins of interest were detected with the appropriate HRP-conjugated secondary antibody (1:10,000, Thermo Fisher Scientific, Loughborough), developed with the ECL Western blotting Super Signal PicoPlus substrate (34577; Thermo Fisher Scientific, Loughborough), and visualised in Chemidoc XRS Imager (BioRad).\nThe effects of the following treatments were assessed on the SKMEL31 melanoma cell line (heterozygous for BRAF V600E): (1) MRx0029; (2) Vemurafenib (VEMU) in YFCA+ medium; (3) VEMU and MRx0029; (4) Azacytidine-C (Aza-c) in YFCA+ medium; (5) Aza-c and MRx0029; (6) VEMU, Aza-c and MRx0029."}, "[4]": {"system": "451Lu melanoma cell line", "test": "Clonogenic survival of 451Lu cell line", "type": "cell-based", "settings": "relative to both negative controls (cell line only, and YCFA+ +DMSO)", "description": "Cells were trypsinized and 200 cells/well were seeded in 12-well plates. After 48 h cells were treated with the appropriate drugs in absence (YCFA+) or presence of 10% bacterial supernatant and were re-fed every three days. On day 21 after seeding, cells were fixed in ice-cold methanol and stained with Crystal Violet blue. […] were counted and survival fraction was calculated as number of colonies divided by the number of plated cells (plating efficiency) of treated divided by the plating efficiency of control.\nThe effects of the following treatments were assessed on the 451Lu melanoma cell line (V600E oncogenic mutation in BRAF): (1) MRx0029; (2) Vemurafenib (VEMU) in YFCA+ medium; (3) VEMU and MRx0029; (4) Azacytidine-C (Aza-c) in YFCA+ medium; (5) Aza-c and MRx0029; (6) VEMU, Aza-c and MRx0029."}, "[5]": {"system": "MAP2", "test": "MAP2 expression in SH-SY5Y cells (qPCR, Example 22)", "type": "cell-based", "settings": "10% bacterial supernatants 17 h, vs negative control and media control", "description": "SH-SY5Y were plated in 6 well plates at a density of 0.5×10^6 cells. After 24 h, cells were treated in differentiation medium (growth medium containing 1% FBS) with 10% bacterial supernatants or YCFA+ for 17 h. Cells were collected, and total RNA was isolated according to the RNeasy mini kit protocol (Qiagen). cDNA was made using the High Capacity cDNA reverse transcription kit (Applied Biosystems). Gene expression was measured by qPCR. GAPDH was used as internal control. Fold change was calculated according to the 2^(−ΔΔct) method. Primer sets used are listed as SEQ ID NOs: 2, 3, 4 and 5."}}}
{"substance": "Megasphaera massiliensis MRx0029", "values": [{"measurement": "IL-8 secretion", "setting": "[1]", "value": "Increases IL-8 Secretion"}, {"measurement": "secretion of IL-8", "setting": "[2]", "value": "even lower secretion of IL-8"}, {"measurement": "ERK signalling", "setting": "[3]", "value": "reduced ERK signalling"}, {"measurement": "clonogenic survival", "setting": "[4]", "value": "decreased clonogenic survival"}, {"measurement": "MAP2 expression", "setting": "[5]", "value": "statistically-significant increase of MAP2 expression"}]}
